Among the data in ChEMBL document CHEMBL1149920, “Synthesis and biological evaluation of an alkenyldiarylmethane (ADAM) which acts as a novel non-nucleoside HIV-1 reverse transcriptase inhibitor” (Bioorg Med Chem Lett, 1995) are IC50, EC50 and IA values, retold here.

Assay [1] relates to MT4. Nature of the assay: Concentration that results in 50% death of MT-4 cells infected with pyridinone-resistant HIV-1 A17 strain; no toxicity was observed. It is filed as functional, cell-based. To be noted: Homo sapiens.
Assay [2] concerns MT4. The experiment in a line: Concentration that results in 50% death of MT-4 cells infected with HIV-1 IIIB strain; no toxicity was observed. It counts as functional, cell-based. Particulars: Homo sapiens.
In assay [3] the test system is PBL. Nature of the assay: Concentration that provides 50% protection in the PBL cells infected with HIV-1 VIHU strain. Particulars: Homo sapiens. It is filed as functional, cell-based.
The test system of assay [4] is MO/Mphi. The experiment in a line: Concentration that provides 50% protection in the MO/Mphi cells infected with HIV-1 ADA strain. Particulars: Homo sapiens. It is filed as functional, cell-based.
Assay [5] concerns MT4. The experiment in a line: Concentration that provides 50% protection in the MT-4 cells infected with AZT-resistant HIV-1 6R strain. It is filed as functional, cell-based. Particulars: Homo sapiens.
In assay [6] the test system is PBL. The experiment in a line: Concentration that provides 50% protection in the PBL cells infected with HIV-1 WEJO strain. Particulars: Homo sapiens. It is filed as functional, cell-based.
The test system of assay [7] is PBL. Nature of the assay: Concentration that provides 50% protection in the PBL cells infected with HIV-1 BAKI strain. To be noted: Homo sapiens. It counts as functional, cell-based.
The target of assay [8] is Human immunodeficiency virus type 1 reverse transcriptase (Human immunodeficiency virus 1, UniProt Q72547). Nature of the assay: Inhibitory activity against HIV-1 reverse transcriptase.
For assay [9], the system named is PBL. The experiment in a line: Concentration that results in 50% death of PBL cells infected with HIV-1 VIHU strain; no toxicity was observed. It is filed as functional, cell-based. To be noted: Homo sapiens.
Assay [10] concerns MO/Mphi. The experiment in a line: Concentration that provides 50% protection in the MO/Mphi cells infected with HIV-1 Ba-L strain. To be noted: Homo sapiens. It counts as functional, cell-based.
Assay [11] deals with PBL. Nature of the assay: Concentration that results in 50% death of PBL cells infected with HIV-1 BAKI strain; no toxicity was observed. It counts as functional, cell-based. Particulars: Homo sapiens.
Assay [12] deals with PBL. The experiment in a line: Concentration that results in 50% death of PBL cells infected with HIV-1 WEJO strain; no toxicity was observed. Particulars: Homo sapiens. It is filed as functional, cell-based.
The test system of assay [13] is MT4. Nature of the assay: Concentration that provides 50% protection in the MT-4 cells infected with SIV strain. It counts as functional, cell-based. Particulars: Homo sapiens.
Assay [14] concerns MO/Mphi. Nature of the assay: Concentration that results in 50% death of MO/Mphi cells infected with HIV-1 Ba-L strain; no toxicity was observed. It is filed as functional, cell-based. To be noted: Homo sapiens.
In assay [15] the test system is MT4. The experiment in a line: Concentration that provides 50% protection in the MT-4 cells infected with HIV-1 IIIBstrain. It counts as functional, cell-based. To be noted: Homo sapiens.
Assay [16] has as its system MT4. The experiment in a line: Concentration that provides 50% protection in the MT-4 cells infected with pyridinone-resistant HIV-1 A17 strain. To be noted: Homo sapiens. It counts as functional, cell-based.
Assay [17] has as its system MT4. The experiment in a line: Concentration that results in 50% death of MT-4 cells infected with Nevirapine resistant HIV-1 N119 strain; no toxicity was observed. It counts as functional, cell-based. To be noted: Homo sapiens.
In assay [18] the test system is MO/Mphi. The experiment in a line: Concentration that results in 50% death of MO/Mphi cells infected with HIV-1 ADA strain; no toxicity was observed. It counts as functional, cell-based. To be noted: Homo sapiens.
Assay [19] relates to MT4. Nature of the assay: Concentration that provides 50% protection in the MT-4 cells infected with AZT-resistant HIV-1 6S strain. Particulars: Homo sapiens. It counts as functional, cell-based.
Assay [20] has as its system MT4. Nature of the assay: Concentration that results in 50% death of MT-4 cells infected with AZT resistant HIV-1 6R strain; no toxicity was observed. It is filed as functional, cell-based. To be noted: Homo sapiens.
The test system of assay [21] is CEM-SS. Nature of the assay: Concentration that provides 50% protection in the CEM-SS cells infected with HIV-2 strain; IA means inactive. It counts as functional, cell-based. Particulars: Homo sapiens.
For assay [22], the system named is MT4. Nature of the assay: Concentration that provides 50% protection in the MT-4 cells infected with nevirapine-resistant HIV-1 N119 strain. It counts as functional, cell-based. Particulars: Homo sapiens.
Assay [23] concerns MT4. The experiment in a line: Concentration that results in 50% death of MT-4 cells infected with HIV-1 6S strain; no toxicity was observed. To be noted: Homo sapiens. It counts as functional, cell-based.
Assay [24] deals with MT4. Nature of the assay: Concentration that results in 50% death of MT-4 cells infected with SIV strain; no toxicity was observed. It is filed as functional, cell-based. To be noted: Homo sapiens.

Activity calls are given as the source filed them. The rule behind the calls is not given here. Some results are limits rather than exact numbers.

Consider `CCCCCC=C(c1cc(Br)c(OC)c(C(=O)OC)c1)c1cc(Br)c(OC)c(C(=O)OC)c1`, for which the IC50 was over 200 µM in assay [1]; over 200 µM in [2]; 380 nM in [8]; over 100 µM in [9]; over 100 µM in assay [11]; over 100 µM in assay [12]. The IC50 in [14], in [17], in assay [18], in assay [20], in [23] and in assay [24] was over 200 µM throughout. For the same molecule, the EC50 in [3] is 24.9 µM; in assay [4], 1850 nM; in [5], 6 µM; in [6], 10.2 µM; in assay [7] it was 15.2 µM; in assay [10], 5.5 µM. For the same molecule, the EC50 in assay [13] amounted to 136 µM; in assay [15], 16 µM; in [16], 14 µM; in [19], 560 nM; in assay [22] it was 151 µM. For the same molecule, the IA result in assay [21] is “inactive”.
